Publication PMC5608406, “In vivo activation of latent HIV with a synthetic bryostatin analog effects both latent cell "kick" and "kill" in strategy for virus eradication” (PLoS Pathogens, 2017)

What was measured:
[1] = system: latent HIV in CD4+ T cells from ART-treated patients; assay: Activation of HIV from latency in patient-derived CD4+ T cells (virion-associated HIV RNA in supernatant); assay type: cell-based, human
Excerpt: Nine HIV-infected individuals receiving ART for a median of 2.6 years (range 0.4–9.1) were studied. All study subjects maintained undetectable levels of plasma viremia (<50 copies/mL) at the time of study (S1 Table).
CD4^+ T cells were isolated from cryopreserved peripheral blood mononuclear cells (PBMCs) using a cell enrichment kit (StemCell Technologies). For patient samples 1–6, resting CD4^+ T cells were further isolated by depleting CD25^+, HLA-DR^+ and CD69^+ CD4^+ cells using PE-conjugated antibodies (BD Biosciences) and anti-PE microbeads (Miltenyi Biotec). CD4^+ T cells were incubated with RPMI 1640-based medium containing antiretroviral drugs consisting of T-20 (100 μg/mL), tenofovir (1 μM), and emtricitabine (1 μM), and test stimuli at concentrations indicated in the figures.
The copy number of virion-associated HIV RNA in the cell culture supernatants was measured using the Cobas Ampliprep/Cobas Taqman HIV-1 Test, Version 2.0 (Roche Diagnostics) following 36–48 hours of incubation of cells with the above study compounds. The limit of detection was 20 copies/mL.

[2] = system: human T cells in BLT mice; assay: Stimulation of human cells in uninfected humanized BLT mice (CD69, CD25); assay type: in vivo; conditions: spleen and blood, one day after stimulation
[3] = CD4+ T cells from 3 ART-treated patients, 48h

C=C1C[C@H]2C[C@]3(O)O[C@H](C[C@@H](O)CC(=O)O[C@@H](CO)C[C@@H]4C/C(=C\C(=O)OC)[C@H](OC(=O)CCCCCCC)[C@@](O)(O4)C(C)(C)/C=C/[C@@H](C1)O2)C[C@H](OC(C)=O)C3(C)C [SUW133]
amount of cell-free virion-associated HIV RNA relative to maximal T cell stimulation (costimulation) [1, 3]: approximately 1/3
virus production compared with other LRAs [1, 3]: significantly outperformed panobinostat, vorinostat, JQ1, and bryostatin 1 treatment
induction of latent virus (cell-free virion-associated viral RNA) ([1]; resting CD4+ T cells from 6 aviremic patients, 50 nM, 36h): induced significant levels of latent virus
CD25 expression in human T cells [2]: limited CD25 expression
CD69 expression in human T cells [2]: robust activation of CD69
